The test system of assay [1] is hypercholesterolemic rabbits. Briefly: Oral L-lysine in cholesterol-fed rabbits: vasorelaxation and histomorphometry. Type of assay: in vivo, rabbit. The following applies: ten weeks. The source says: FIG. 9 is a set of dose-response curves showing the effect of chronic lysine administration on endothelium dependent vasodilation in hypercholesterolemic rabbits. […] Chronic administration of lysine was just as effective as arginine in restoring vascular function and structure. (See Ex. 14)
L-lysine is a basic amino acid like L-arginine, but is not known to be metabolized by NO synthase to NO. Therefore, the following results were unexpected. New Zealand white rabbits were fed a normal or high cholesterol chow (n=18). Half of the animals on the cholesterol diet also received oral L-lysine. After ten weeks, the thoracic aortae were harvested and bioassayed for vascular NO synthesis, and histomorphometry to assess lesion formation was performed as described above.

A further assay concerns platelets. Briefly: ADP-initiated platelet aggregation (nephelometry), platelets from treated rabbits. Type of assay: in vivo, rabbit. The note with it: N-methylarginine 10^−4 M in vitro. Here is the method:
The effect of L-arginine supplementation on platelet reactivity in rabbits that had normal chow (Control; n=6), a 1% cholesterol diet (Chol; n=5), or a 1% cholesterol diet supplemented with oral arginine (Arg; n=6), as detailed above, was examined. Arterial blood obtained after central ear artery cannulation was anticoagulated with 13 mM sodium citrate. Platelet-rich suspension was prepared by washing platelets in calcium-free Krebs-Henseleit solution and resuspending them in Tyrode's solution with albumin. Aggregation was initiated by addition of adenosine diphosphate and monitored by standard nephelometric techniques. In platelets derived from Chol animals, aggregation was not different in rate or maximum extent in comparison to platelets from Control animals (A, in FIG. 2). By contrast, aggregation of platelets from Arg animals was reduced by 50% (B, in FIG. 2).
Therefore, the anti-platelet effect of chronic oral arginine administration can be credited to an increased synthesis of endogenous NO. Furthermore, NO synthesis may be induced in both the platelets and the endothelium.

The subject of assay [2] is hypercholesterolemic rabbits. The note with it: vs 1% cholesterol diet alone, ten weeks. The text has this:
At ten weeks animals were sacrificed for studies of platelet and vascular reactivity, and histomorphometry.

Assay [3] concerns human aortic endothelial cells (HAEC). Briefly: Flow-exposed human aortic endothelial cells: THP-1 monocyte binding after oxLDL or LPS/TNF. Type of assay: cell-based. The note with it: oxLDL 30 μg/ml. Here is the method: FIG. 6. Stimulation of cultured endothelial cells with fluid flow causes them to secrete nitric oxide. Flow-induced secretion of nitric oxide decreases endothelial adhesiveness induced by oxidized LDL cholesterol (oxLDL; 30 μg/ml). Exposure of human aortic endothelial cells to oxLDL increased the ex vivo binding of monocytes when compared to Control. In comparison to cells not exposed to flow (static), previous exposure to flow inhibited the monocyte adhesion induced by oxLDL. These effects of flow were blocked by NO synthase inhibitors and mimicked by NO donors (PAPA-NO) or cyclic GMP (cGMP). Bars represent mean±SEM. *p<0.05; **p<0.01. (See Ex. 8)
Methods and Results: Confluent monolayers of human aortic endothelial cells (HAEC) were exposed to static or fluid flow conditions for 4 hours (fluid flow stimulates the production of endogenous nitric oxide). Medium was then replaced and cells were then incubated with native LDL (50 μg/ml), oxidized LDL (30 μg/ml), or LPS (10 ng/ml)+TNF-α (10 U/ml) for an additional 4 hours. Functional binding assays utilizing THP-1 monocytes were then performed. Superoxide production by HAECs was monitored by lucigenin chemiluminescence and expression of the adhesion molecules VCAM-1 and ICAM-1 was quantitated by flow cytometry. […] Previous exposure to fluid flow inhibited endothelial adhesiveness for monocytes (FIG. 6) and the other sequelae of exposure to cytokines or oxidized lipoprotein.

The subject of assay [4] is Smooth muscle cells (SMC). Briefly: Oxidized LDL-exposed aortic smooth muscle cells: MCP-1, superoxide anion, NFκB. The format is cell-based, rabbit. The note with it: DETA-NONOate 100 μM pre-exposure, oxLDL 30 μg/ml. Here is the method:
(§1) Methods and Results. Smooth muscle cells (SMC) were isolated from normal rabbit aortae by explant method. Cells were then exposed to oxidized LDL (30 μg/ml) (which is known to induce vascular cells to synthesize MCP-1). […] All of these effects of oxidized LDL cholesterol were reduced by previous exposure of the SMC to the NO-donor DETA-NONOate (100 μM) (p<0.05). To determine if NO exerted its effect at a transcriptional level, SMC and COS cells were transfected with a 400 bp fragment of the MCP-1 promoter. Enhanced promoter activity by oxLDL was inhibited by DETA-NO.

The next assay relates to MCP-1 promoter. Briefly: MCP-1 promoter activity in transfected SMC and COS cells. The format is cell-based. The following applies: 400 bp promoter fragment. Here is the method:
as §1

These results are taken from patent publication US6646006B2, “Enhancement of vascular function by modulation of endogenous nitric oxide production or activity” (The Board of Trustees of the Leland Stanford Junior …, priority 1993, dated 2003).

As to `NCCCC[C@H](N)C(=O)O` [L-lysine], in assay [1], the “vascular NO activity (endothelium-dependent vasorelaxation)” value is reported as “just as effective as L-arginine” and the “vascular lesion formation / plaque area” value is listed as “marked reduction”. In addition, the “vascular NO activity (endothelium-dependent vasorelaxation)” value in assay [1] (listed as lysine) is given as “improved”.
Take `CN[C@@H](CCCNC(=N)N)C(=O)O` [N-methylarginine, reference compound]: the “reversal of the arginine-induced reduction of platelet reactivity” value with platelets was “could be reversed”; with platelets (listed as LNMMA) it was “reverses”.
Turning to `CSCC[C@H](N)C(=O)O` [methionine], in assay [2], the endothelium-dependent relaxation entry is “not different”, the intimal thickness result was “not different” and the platelet aggregation entry was “not different”.
In the case of `CCCN(CCCN)/[N+]([O-])=N/O` [PAPA-NONOate], the “mimicry of the effects of flow on monocyte adhesion” value in assay [3] is given as “mimicked the effects of flow”; in assay [3] (listed as PAPA-NO) it was “mimicked”.
In the case of `NCCN(CCN)/[N+]([O-])=N/O` [DETA-NONOate], in assay [4], the “activity of NFκB induced by oxidized LDL” value is listed as “reduced”, the “expression of MCP-1 induced by oxidized LDL” value was “reduced” and the “generation of superoxide anion induced by oxidized LDL” value is on record as “reduced”. Further, the “MCP-1 promoter activity enhanced by oxLDL” value in the assay on MCP-1 promoter was “inhibited”.
Take `Nc1nc2c(ncn2[C@@H]2O[C@@H]3COP(=O)(O)O[C@H]3[C@H]2O)c(=O)[nH]1` [cGMP, cyclic guanosine monophosphate]: the “mimicry of the effects of flow on monocyte adhesion” value in assay [3] is on record as “mimicked”.
